Literature values, collected in paper PMC9045302, “The Characterization of an Efficient Phenylpyruvate Decarboxylase KDC4427, Involved in 2-Phenylethanol and IAA Production from Bacterial Enterobacter sp. CGMCC 5087” (Microbiology Spectrum, 2022).

Key:
[1] = biological target: T1, KDC4427 (Enterobacter sp. CGMCC 5087, UniProt Z9M8L3KFT6); experiment: coupled assay with yeast alcohol dehydrogenase, NADH at […] nm; format: biochemical; details: pH 7.0, 37°C, 0.2 mM ThDP, 0.1 mM MgSO4; footnote: authors' own data cited from their unpublished paper
T1 construct: tetramer stated from homology model; ThDP/Mg2+ dependent

[2] = biological target: T1, KDC4427; experiment: as above; format: biochemical; details: pH 7.0, 37°C, 0.2 mM ThDP, 0.1 mM MgSO4; footnote: authors' own data cited from their unpublished paper; remark: listed apart in the source

Row | Compound | Km [1] | Km [2]
1 | O=C(O)C(=O)Cc1c[nH]c2ccccc12 [Indole-3-pyruvic acid] | 0.015 ± 0.002 mM | –
2 | O=C(O)C(=O)Cc1ccccc1 [Phenylpyruvic acid] | – | 0.6 ± 0.02 mM
